In US11440905B2, “Biheterocyclic compound” (SUMITOMO PHARMA CO., LTD., priority 2016, dated 2022):
Structures can show the parent of a compound that is named as a salt.

Target: T1, mouse semaphorin 3A (Sema3A) (Mus musculus, UniProt O08665)
T1 sequence (O08665 21-772): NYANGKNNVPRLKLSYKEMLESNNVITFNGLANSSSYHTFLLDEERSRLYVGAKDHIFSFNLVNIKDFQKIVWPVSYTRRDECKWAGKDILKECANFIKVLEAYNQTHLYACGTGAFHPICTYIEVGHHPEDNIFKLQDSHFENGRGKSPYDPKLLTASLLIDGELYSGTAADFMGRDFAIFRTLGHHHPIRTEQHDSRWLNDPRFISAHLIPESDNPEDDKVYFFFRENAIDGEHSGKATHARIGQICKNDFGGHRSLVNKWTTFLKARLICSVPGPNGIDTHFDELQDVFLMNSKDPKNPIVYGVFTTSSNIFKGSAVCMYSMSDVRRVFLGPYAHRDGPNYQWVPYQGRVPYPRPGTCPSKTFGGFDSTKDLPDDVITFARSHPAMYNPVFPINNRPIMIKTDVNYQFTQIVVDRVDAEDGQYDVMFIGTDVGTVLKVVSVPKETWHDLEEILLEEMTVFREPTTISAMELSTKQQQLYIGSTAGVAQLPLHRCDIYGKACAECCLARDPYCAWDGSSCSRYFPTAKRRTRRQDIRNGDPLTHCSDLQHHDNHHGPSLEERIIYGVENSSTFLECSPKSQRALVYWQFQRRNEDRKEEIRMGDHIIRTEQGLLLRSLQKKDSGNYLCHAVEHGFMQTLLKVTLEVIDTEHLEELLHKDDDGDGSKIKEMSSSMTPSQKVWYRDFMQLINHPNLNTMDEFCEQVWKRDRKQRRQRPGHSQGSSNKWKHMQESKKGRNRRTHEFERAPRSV
Assay: Inhibitory activity for the collapse activity caused by Sema3A (growth cone collapse assay, Test 1)
Type: cell-based
Conditions: chick embryo dorsal root ganglion, 3 units/mL mouse Sema3A, smaller value = more potent inhibition, read-out: residual ratio (%) of Sema3A activity (collapse assay); for remaining activity at 1 µM: 1 μM test compound; for remaining activity at 3 µM: 3 μM test compound; for remaining activity at 10 µM: 10 μM test compound
Description: Inhibitory Activity for the Collapse Activity Caused by Sema3A
96 well-plate (SUMITOMO BAKELITE CO., LTD.) which was beforehand coated with polylysine was further coated with laminin (10 μL laminin, at room temperature, for 1 hour). To each well was added 100 μL of a medium (F12 medium containing 10% fetal bovine serum, 20 ng/mL NGF, 100 unit/mL penicillin, and 100 μg/mL streptomycin). Dorsal root ganglion harvested from 7-8 day-old chick embryo was inoculated thereto, and the culture medium was cultivated under the condition of 5% CO2 and 37° C. for 16-20 hours. And then, each test compound in various concentrations was added to the medium, each test medium was cultivated for 30 minutes, 3 units/mL mouse semaphorin 3A (Sema3A) was added to each medium, and then each test medium was cultivated for more 30 minutes. Then, glutaraldehyde was added to the medium, in which the final concentration of glutaraldehyde was 1%. The medium was left to stand at room temperature for 15 minutes to make the tissue fragment fixed, and the ratio of the retracted growth cone was measured under a microscope.

remaining activity at 1 µM [%] | remaining activity at 3 µM [%] | remaining activity at 10 µM [%] | SMILES
90.1 | 3.3 |  | Cc1nc2cc(O)c(O)cn2c(=O)c1-c1coc2cc(O)c(O)c(C(=O)OCc3cn(CC(=O)N[C@@H](CCC(=O)O)C(=O)O)nn3)c2c1=O [Example 17, N-({4-[({[3-(7,8-Dihydroxy-2-methyl-4-oxo-4H-pyrido[1,2-a]pyrimidin-3-yl)-6,7-dihydroxy-4-oxo-4H-chromen-5-yl]carbonyl}oxy)methyl]-1H-1,2,3-triazol-1-yl}acetyl)-L-glutamic acid]
15.9 | 2.2 |  | Cc1nc2cc(O)c(O)cn2c(=O)c1-c1coc2cc(O)c(O)c(C(=O)O)c2c1=O [Example 16, 3-(7,8-Dihydroxy-2-methyl-4-oxo-4H-pyrido[1,2-a]pyrimidin-3-yl)-6,7-dihydroxy-4-oxo-4H-chromene-5-carboxylic acid]
5.4 | 0 |  | Cc1c(-c2coc3cc(O)c(O)c(C(=O)OCc4cn(CC(=O)N[C@@H](CCC(=O)O)C(=O)O)nn4)c3c2=O)c(=O)n(C)c2cc(O)c(O)cc12 [Example 15, N-({4-[({[3-(6,7-Dihydroxy-1,4-dimethyl-2-oxo-1,2-dihydroquinolin-3-yl)-6,7-dihydroxy-4-oxo-4H-chromen-5-yl]carbonyl}oxy)methyl]-1H-1,2,3-triazol-1-yl}acetyl)-L-glutamic acid]
< 70 | < 10 |  | Cn1cc(-c2coc3cc(O)c(O)c(C(=O)OCC(O)CO)c3c2=O)c(=O)c2cc(O)c(O)cc21 (stereo not shown) [Example 23, 2,3-Dihydroxypropyl 3-(6,7-dihydroxy-1-methyl-4-oxo-1,4-dihydroquinolin-3-yl)-6,7-dihydroxy-4-oxo-4H-chromene-5-carboxylate]
65.5 |  |  | N=C(N)NCCC[C@H](NC(=O)Cn1cc(COC(=O)c2c(O)c(O)cc3occ(-c4cc5cc(O)c(O)cc5oc4=O)c(=O)c23)nn1)C(=O)O [Example 12, N^2-{[4-({[(6,6′,7,7′-Tetrahydroxy-2,4′-dioxo-2H,4′H-3,3′-bichromen-5′-yl)carbonyl]oxy}methyl)-1H-1,2,3-triazol-1-yl]acetyl}-L-arginine trifluoroacetate]
 | < 70 | < 40 | Cc1c(-c2coc3cc(O)c(O)c(C(=O)O)c3c2=O)c(=O)c2cc(O)c(O)cc2n1C [Example 7, 3-(6,7-Dihydroxy-1,2-dimethyl-4-oxo-1,4-dihydroquinolin-3-yl)-6,7-dihydroxy-4-oxo-4H-chromene-5-carboxylic acid]
 | < 40 |  | Cn1cc(-c2coc3cc(O)c(O)c(C(=O)OCC(N)=O)c3c2=O)c(=O)c2cc(O)c(O)cc21 [Example 30, 2-Amino-2-oxoethyl 3-(6,7-dihydroxy-1-methyl-4-oxo-1,4-dihydroquinolin-3-yl)-6,7-dihydroxy-4-oxo-4H-chromene-5-carboxylate]
 |  | < 70 | Cn1c(=O)c(-c2coc3cc(O)c(O)c(C(=O)O)c3c2=O)cc2cc(O)c(O)cc21 [Example 13, 3-(6,7-Dihydroxy-1-methyl-2-oxo-1,2-dihydroquinolin-3-yl)-6,7-dihydroxy-4-oxo-4H-chromene-5-carboxylic acid]

Second part, the compound before the results:

SMILES | remaining activity at 1 µM [%] | remaining activity at 3 µM [%] | remaining activity at 10 µM [%]
O=C(O)c1c(O)c(O)cc2occ(-c3cc4cc(O)c(O)cc4oc3=O)c(=O)c12 [Example 9, 6,6′,7,7′-Tetrahydroxy-2,4′-dioxo-2H,4′H-3,3′-bichromene-5′-carboxylic acid] | 3.4 | 7.3 | 
Cn1c(=O)c(-c2coc3cc(O)c(O)c(C(=O)OCc4cn(CC(=O)N[C@@H](CCC(=O)O)C(=O)O)nn4)c3c2=O)cc2cc(O)c(O)cc21 [Example 14, N-({4-[({[3-(6,7-Dihydroxy-1-methyl-2-oxo-1,2-dihydroquinolin-3-yl)-6,7-dihydroxy-4-oxo-4H-chromen-5-yl]carbonyl}oxy)methyl]-1H-1,2,3-triazol-1-yl}acetyl)-L-glutamic acid] | 78.8 | 6.1 | 
Cn1cc(-c2coc3cc(O)c(O)c(C(=O)OCc4cn(CC(=O)N[C@@H](CCCNC(=N)N)C(=O)O)nn4)c3c2=O)c(=O)c2cc(O)c(O)cc21 [Example 4, N^2-({4-[({[3-(6,7-Dihydroxy-1-methyl-4-oxo-1,4-dihydroquinolin-3-yl)-6,7-dihydroxy-4-oxo-4H-chromen-5-yl]carbonyl}oxy)methyl]-1H-1,2,3-triazol-1-yl}acetyl)-L-arginine trifluoroacetate] | 6 |  | 
Cn1cc(-c2coc3cc(O)c(O)c(C(=O)OCC[C@H](N)C(=O)O)c3c2=O)c(=O)c2cc(O)c(O)cc21 [Example 27, O-{[3-(6,7-Dihydroxy-1-methyl-4-oxo-1,4-dihydroquinolin-3-yl)-6,7-dihydroxy-4-oxo-4H-chromen-5-yl]carbonyl}-L-homoserine hydrochloride] | < 10 | < 10 | 
Cn1cc(-c2coc3cc(O)c(O)c(C(=O)N[C@@H](CCC(=O)O)C(=O)O)c3c2=O)c(=O)c2cc(O)c(O)cc21 [Example 5, N-{[3-(6,7-Dihydroxy-1-methyl-4-oxo-1,4-dihydroquinolin-3-yl)-6,7-dihydroxy-4-oxo-4H-chromen-5-yl]carbonyl}-L-glutamic acid] | 5.1 | 3.3 | 
O=C(O)CC[C@H](NC(=O)Cn1cc(COC(=O)c2c(O)c(O)cc3occ(-c4cc5cc(O)c(O)cc5oc4=O)c(=O)c23)nn1)C(=O)O [Example 11, N-{[4-({[(6,6′,7,7′-Tetrahydroxy-2,4′-dioxo-2H,4′H-3,3′-bichromen-5′-yl)carbonyl]oxy}methyl)-1H-1,2,3-triazol-1-yl]acetyl}-L-glutamic acid] | 7.9 |  | 
Cc1nc2cc(O)c(O)cn2c(=O)c1-c1coc2cc(O)c(O)c(C(=O)OCC(=O)N[C@@H](CCC(=O)O)C(=O)O)c2c1=O [Example 18, N-[({[3-(7,8-Dihydroxy-2-methyl-4-oxo-4H-pyrido[1,2-a]pyrimidin-3-yl)-6,7-dihydroxy-4-oxo-4H-chromen-5-yl]carbonyl}oxy)acetyl]-L-glutamic acid] | 21.8 | 6.7 | 
Cc1c(-c2coc3cc(O)c(O)c(C(=O)OCc4cn(CC(=O)N[C@@H](CCC(=O)O)C(=O)O)nn4)c3c2=O)c(=O)c2cc(O)c(O)cc2n1C [Example 8, N-({4-[({[3-(6,7-Dihydroxy-1,2-dimethyl-4-oxo-1,4-dihydroquinolin-3-yl)-6,7-dihydroxy-4-oxo-4H-chromen-5-yl]carbonyl}oxy)methyl]-1H-1,2,3-triazol-1-yl}acetyl)-L-glutamic acid] | 27.3 | 21 | 
Cn1cc(-c2coc3cc(O)c(O)c(C(=O)O)c3c2=O)c(=O)c2cc(O)c(O)cc21 [Example 1, 3-(6,7-Dihydroxy-1-methyl-4-oxo-1,4-dihydroquinolin-3-yl)-6,7-dihydroxy-4-oxo-4H-chromene-5-carboxylic acid] | 2 | 4.6 | 
Cn1cc(-c2coc3cc(O)c(O)c(C(=O)OC[C@H]4CC[C@H](N)CC4)c3c2=O)c(=O)c2cc(O)c(O)cc21 [Example 24, (trans-4-Aminocyclohexyl)methyl 3-(6,7-dihydroxy-1-methyl-4-oxo-1,4-dihydroquinolin-3-yl)-6,7-dihydroxy-4-oxo-4H-chromene-5-carboxylate hydrochloride] | < 70 | < 10 | 
